Source: paper PMC8890100 (Chemical Science, 2022)

Columns and labels:
PPARγ–LBD = biological target: T1, PPARγ–LBD (Homo sapiens, UniProt P37231); assay: 2D fluorescence anisotropy; type: binding; details: ligand excess vs no ligand
T1 sequence (P37231 238-503 limits assumed): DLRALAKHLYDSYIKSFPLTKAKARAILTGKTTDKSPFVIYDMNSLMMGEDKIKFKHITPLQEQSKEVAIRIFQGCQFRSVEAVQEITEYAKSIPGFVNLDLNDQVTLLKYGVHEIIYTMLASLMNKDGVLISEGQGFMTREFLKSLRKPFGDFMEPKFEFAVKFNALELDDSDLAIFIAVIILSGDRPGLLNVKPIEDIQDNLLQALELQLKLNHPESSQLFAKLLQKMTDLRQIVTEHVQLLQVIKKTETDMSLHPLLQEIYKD

PPARγ·MED1 = PPARγ·MED1 (Homo sapiens, UniProt P37231); assay: 2D-ITC of ligand to PPARγ in the presence of MED1 in cell and syringe; type: binding; details: for cooperativity value α: ITC, PPARγ·ligand·MED1 complex; for −TΔΔS: cooperative effect of MED1 on ligand binding

EC50 shift (fold enhancement of PPARγ/MED1 EC50) (PPARγ–LBD)	cooperativity value α (PPARγ·MED1)	−TΔΔS (PPARγ·MED1) [kcal/mol]	ΔH (PPARγ·MED1; ligand binding to PPARγ in the presence of MED1) [kcal/mol]	SMILES
smaller EC50 shift				CC[C@@H](Oc1cccc(CN(CCCOc2ccc(OC)cc2)c2nc3ccccc3o2)c1)C(=O)O [Pemafibrate]
	28	-2.3		CN(CCOc1ccc(CC2SC(=O)NC2=O)cc1)c1ccccn1 (centres unmarked) [Rosiglitazone]
smaller EC50 shift				CCCc1nc2c(C)cc(-c3nc4ccccc4n3C)cc2n1Cc1ccc(-c2ccccc2C(=O)O)cc1 [Telmisartan]
24 fold	18	-3.5	21.0	CCO[C@@H](Cc1ccc(OCCc2ccc(OS(C)(=O)=O)cc2)cc1)C(=O)O [Tesaglitazar]
